From patent US7427612B2, “Benzoyl-piperazine derivatives” (Hoffmann-La Roche Inc., priority 2003, dated 2008)

These compounds were tested against T1, mGlyT-1b (Mus musculus, UniProt P28571) (assay: Glycine uptake inhibition assay (mGlyT-1b)). Details: inhibition of [3H]-glycine uptake in Flp-in-CHO cells stably transfected with mGlyT1b cDNA; 20 min at 22° C.
T1 construct: host or cells: Flp-in CHO cells, stably transfected
T1 sequence (P28571 1-651 isoform P28571-2): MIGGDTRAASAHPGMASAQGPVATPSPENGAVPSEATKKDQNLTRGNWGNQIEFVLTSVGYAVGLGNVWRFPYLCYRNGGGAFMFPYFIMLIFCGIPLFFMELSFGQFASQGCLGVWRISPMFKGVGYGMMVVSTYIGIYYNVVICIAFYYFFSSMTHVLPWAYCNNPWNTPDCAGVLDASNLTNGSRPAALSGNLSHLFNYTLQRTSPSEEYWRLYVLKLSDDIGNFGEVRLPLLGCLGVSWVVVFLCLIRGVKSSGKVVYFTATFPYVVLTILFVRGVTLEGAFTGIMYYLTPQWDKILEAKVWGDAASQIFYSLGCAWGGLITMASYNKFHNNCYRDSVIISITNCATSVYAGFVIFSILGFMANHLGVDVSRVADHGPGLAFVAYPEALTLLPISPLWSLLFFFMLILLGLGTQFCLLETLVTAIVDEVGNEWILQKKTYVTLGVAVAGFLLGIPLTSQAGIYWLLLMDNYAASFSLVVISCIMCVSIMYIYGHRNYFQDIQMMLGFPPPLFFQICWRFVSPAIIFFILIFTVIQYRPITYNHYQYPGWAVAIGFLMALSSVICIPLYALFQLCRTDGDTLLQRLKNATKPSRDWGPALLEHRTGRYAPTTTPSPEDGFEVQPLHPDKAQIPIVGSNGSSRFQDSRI
Type: cell-based
Protocol: DMEM complete medium: Nutrient mixture F-12 (Gibco Life-technologies), fetal bovine serum (FBS) 5%, (Gibco life technologies), Penicillin/Streptomycin 1% (Gibco life technologies), Hygromycin 0.6 mg/ml (Gibco life technologies), Glutamine 1 mM Gibco life technologies)
Uptake buffer (UB): 150 mM NaCl, 10 mM Hepes-Tris, pH 7.4, 1 mM CaCl2, 2.5 mM KCl, 2.5 mM MgSO4, 10 mM (+) D-glucose. Flp-in™—CHO (Invitrogen Cat n° R758-07)cells stably transfected with mGlyT1b cDNA.
Glycine uptake inhibition assay (mGlyT-1b)
On Day 1 mammallian cells, (Flp-in™—CHO), transfected with mGlyT-1b cDNA, were plated at the density of 40,000 cells/well in complete F-12 medium, without hygromycin in 96-well culture plates. On day 2, the medium was aspirated and the cells were washed twice with uptake buffer (UB). The cells were then incubated for 20 min at 22° C. with either (i) no potential competitor, (ii) 10 mM non-radioactive glycine, (iii) a concentration of a potential inhibitor. A range of concentrations of the potential inhibitor was used to generate data for calculating the concentration of inhibitor resulting in 50% of the effect (e.g. IC50, the concentration of the competitor inhibiting glycine uptake of 50%). A solution was then immediately added containing [^3H]-glycine 60 nM (11-16 Ci/mmol) and 25 μM non-radioactive glycine. The plates were incubated with gentle shaking and the reaction was stopped by aspiration of the mixture and washing (three times) with ice-cold UB. The cells were lysed with scintillation liquid, shaken 3 hours and the radioactivity in the cells was counted using a scintillation counter.

| Compound | IC50 [µM] |
| --- | --- |
| CS(=O)(=O)c1ccc(N2CCCCC2)c(C(=O)N2CCN(c3ccc(C#N)c(F)c3)CC2)c1 [Example 217, 2-Fluoro-4-[4-(5-methanesulfonyl-2-piperidin-1-yl-benzoyl)-piperazin-1-yl]-benzonitrile] | 0.016 |
| CS(=O)(=O)c1ccc(N2CCCCC2)c(C(=O)N2CCN(c3ccc(C(F)(F)F)cc3F)CC2)c1 [Example 219, [4-(2-Fluoro-4-trifluoromethyl-phenyl)piperazin-1-yl]-(5-methanesulfonyl-2-piperidin-1-yl-phenyl)-methanone] | 0.017 |
| CS(=O)(=O)c1ccc(N2CCCCC2)c(C(=O)N2CCN(c3ccc(C(F)(F)F)c(F)c3)CC2)c1 [Example 220, [4-(3-Fluoro-4-trifluoromethyl-phenyl)piperazin-1-yl]-(5-methanesulfonyl-2-piperidin-1-yl-phenyl)-methanone] | 0.019 |
| CNS(=O)(=O)c1ccc(N2CCCC2)c(C(=O)N2CCN(c3ccc(C#N)cc3)CC2)c1 [Example 233, 3-[4-(4-Cyano-phenyl)-piperazine-1-carbonyl]-N-methyl-4-pyrrolidin-1-yl-benzenesulfonamide] | 0.016 |
| CNS(=O)(=O)c1ccc(N2CCCC2)c(C(=O)N2CCN(c3ccc(C#N)cc3F)CC2)c1 [Example 234, 3-[4-(4-Cyano-2-fluoro-phenyl)-piperazine-1-carbonyl]-N-methyl-4-pyrrolidin-1-yl-benzenesulfonamide] | 0.01 |
| CNS(=O)(=O)c1ccc(N2CCCC2)c(C(=O)N2CCN(c3ccc(C(F)(F)F)cc3F)CC2)c1 [Example 235, 3-[4-(2-Fluoro-4-trifluoro-methyl-phenyl)-piperazine-1-carbonyl]-N-methyl-4-pyrrolidin-1-yl-benzenesulfonamide] | 0.0065 |
| CNS(=O)(=O)c1ccc(N2CCCC2)c(C(=O)N2CCN(c3ccc(C(F)(F)F)c(F)c3)CC2)c1 [Example 236, 3-[4-(3-Fluoro-4-trifluoromethyl-phenyl)-piperazine-1-carbonyl]-N-methyl-4-pyrrolidin-1-yl-benzenesulfonamide] | 0.004 |
| CNS(=O)(=O)c1ccc(N2CCCCC2)c(C(=O)N2CCN(c3ccc(C(C)=O)cc3F)CC2)c1 [Example 245, 3-[4-(4-Acetyl-2-fluoro-phenyl)-piperazine-1-carbonyl]-N-methyl-4-piperidin-1-yl-benzene-sulfonamide] | 0.018 |
| CNS(=O)(=O)c1ccc(N2CCCCC2)c(C(=O)N2CCN(c3ccc(C#N)cc3)CC2)c1 [Example 246, 3-[4-(4-Cyano-phenyl)-piperazine-1-carbonyl]-N-methyl-4-piperidin-1-yl-benzenesulfonamide] | 0.011 |
| CNS(=O)(=O)c1ccc(N2CCCCC2)c(C(=O)N2CCN(c3ccc(C#N)cc3F)CC2)c1 [Example 247, 3-[4-(4-Cyano-2-fluoro-phenyl)-piperazine-1-carbonyl]-N-methyl-4-piperidin-1-yl-benzene-sulfonamide] | 0.014 |
| CNS(=O)(=O)c1ccc(N2CCCCC2)c(C(=O)N2CCN(c3ccc(C#N)c(F)c3)CC2)c1 [Example 248, 3-[4-(4-Cyano-3-fluoro-phenyl)-piperazine-1-carbonyl]-N-methyl-4-piperidin-1-yl-benzenesulfonamide] | 0.01 |
| CNS(=O)(=O)c1ccc(N2CCCCC2)c(C(=O)N2CCN(c3ccc(C(F)(F)F)cc3F)CC2)c1 [Example 250, 3-[4-(2-Fluoro-4-trifluoromethyl-phenyl)-piperazine-1-carbonyl]-N-methyl-4-piperidin-1-yl-benzenesulfonamide] | 0.015 |
| CNS(=O)(=O)c1ccc(N2CCCCC2)c(C(=O)N2CCN(c3ccc(C(F)(F)F)c(F)c3)CC2)c1 [Example 251, 3-[4-(3-Fluoro-4-trifluoro-methyl-phenyl)-piperazine-1-carbonyl]-N-methyl-4-piperidin-1-yl-benzenesulfonamide] | 0.019 |
| CNS(=O)(=O)c1ccc(N2CCOCC2)c(C(=O)N2CCN(c3ccc(C(F)(F)F)cc3F)CC2)c1 [Example 263, 3-[4-(2-Fluoro-4-trifluoro-methyl-phenyl)-piperazine-1-carbonyl]-N-methyl-4-morpholin-4-yl-benzene-sulfonamide] | 0.01 |
| CNS(=O)(=O)c1ccc(N2CCOCC2)c(C(=O)N2CCN(c3ccc(C(F)(F)F)c(F)c3)CC2)c1 [Example 264, 3-[4-(3-Fluoro-4-trifluoro-methyl-phenyl)-piperazine-1-carbonyl]-N-methyl-4-morpholin-4-yl-benzenesulfonamide] | 0.012 |
